In ChEMBL document CHEMBL1201862, “PubChem BioAssay data set” (2004):
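A five-concentration, 48-hour dose response in 96-well plates underlies each endpoint, interpolated linearly between surrounding concentrations. GI50 = concentration required for 50% inhibition of growth.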 Active and inactive are the calls of the source. Rule as the data show it: active = GI50 up to about 1.1 µM and inactive = higher.

Legend:
Experiment in all cases: DTP human tumour cell line panel, 48 h
ACHN = test system: ACHN
CCRF-CEM = test system: CCRF-CEM
COLO 205 = test system: COLO 205
EKVX = test system: EKVX
HL-60 = test system: HL-60
HOP-92 = test system: HOP-92
HT-29 = test system: HT-29
K562 = test system: K562
MDA-MB-231 = test system: MDA-MB-231
RPMI-8226 = test system: RPMI-8226
SNB-19 = test system: SNB-19
T47D = test system: T47D
TK-10 = test system: TK-10
U-251 = test system: U-251
UACC-257 = test system: UACC-257
UO-31 = test system: UO-31
MDA-MB-435 = test system: MDA-MB-435
NCI-H522 = test system: NCI-H522
RXF 393 = test system: RXF 393
NCI-H226 = test system: NCI-H226

Measured: GI50

CC1CN=C(N(C(=O)Nc2ccccc2)c2ccc(Cl)c(Cl)c2)S1 (stereo not drawn)
inactive: ACHN 31.6 µM | CCRF-CEM > 10 µM | COLO 205 > 10 µM | EKVX 23.3 µM | HL-60 30.3 µM | HOP-92 17.1 µM | HT-29 16.1 µM | K562 > 10 µM | MDA-MB-231 18.2 µM | RPMI-8226 41.3 µM | SNB-19 70.6 µM | T47D 14.4 µM | TK-10 28.2 µM | U-251 > 10 µM | UACC-257 32.2 µM | UO-31 24.8 µM

COc1ccc(Oc2cccc(/C=C3/C(=O)Nc4ccccc43)c2)cc1
inactive: ACHN 11.6 µM | CCRF-CEM 4.21 µM | COLO 205 3.73 µM | EKVX 10.9 µM | HL-60 3.05 µM | HOP-92 3.53 µM | HT-29 3.73 µM | K562 1.57 µM | MDA-MB-435 3.58 µM | NCI-H522 6.61 µM | RXF 393 3.94 µM | SNB-19 6.1 µM | T47D 1.77 µM | TK-10 15.2 µM | U-251 1.91 µM | UACC-257 5.79 µM | UO-31 6.82 µM

CCCCCCC(C)CC(CCCCCC)NCCOC(=O)c1ccc([N+](=O)[O-])cc1 (stereo not drawn)
inactive: ACHN 13.3 µM | CCRF-CEM 4.52 µM | COLO 205 3.18 µM | EKVX 8.71 µM | HOP-92 5.82 µM | HT-29 4.04 µM | MDA-MB-231 6.71 µM | NCI-H226 13.9 µM | NCI-H522 12.1 µM | SNB-19 15.6 µM | T47D 10.7 µM | TK-10 10.6 µM | U-251 11.1 µM | UACC-257 4.98 µM | UO-31 10.4 µM

c1ccc2c(Cc3nnc4sc(SSc5nn6c(Cc7c[nH]c8ccccc78)nnc6s5)nn34)c[nH]c2c1
inactive: ACHN 26.4 µM | CCRF-CEM 32.6 µM | COLO 205 21.1 µM | EKVX 23 µM | HL-60 24.2 µM | HOP-92 31 µM | HT-29 22.5 µM | K562 17.4 µM | MDA-MB-435 19 µM | NCI-H522 17.9 µM | RXF 393 18.8 µM | SNB-19 31 µM | T47D 23.2 µM | TK-10 38.7 µM | U-251 21.7 µM | UACC-257 33 µM | UO-31 14.5 µM

CCOC(=O)c1[nH]c2nc(SC)nc(Nc3ccccc3Cl)c2c1N
inactive: ACHN 18.3 µM | CCRF-CEM 15.3 µM | COLO 205 28.9 µM | HT-29 11.7 µM | K562 13.9 µM | MDA-MB-231 16.6 µM | MDA-MB-435 31.6 µM | NCI-H226 15.3 µM | NCI-H522 16.8 µM | RPMI-8226 15.2 µM | RXF 393 12.4 µM | SNB-19 17.5 µM | T47D 13.1 µM | TK-10 22.5 µM | U-251 13.9 µM | UACC-257 33.6 µM | UO-31 15.7 µM

CCOC(CNc1nn2c(C)nnc2s1)OCC
inactive: ACHN > 100 µM | CCRF-CEM > 100 µM | COLO 205 > 100 µM | EKVX > 100 µM | HL-60 > 100 µM | HOP-92 > 100 µM | HT-29 > 100 µM | K562 > 100 µM | MDA-MB-231 > 100 µM | MDA-MB-435 > 100 µM | NCI-H226 > 100 µM | NCI-H522 > 100 µM | RPMI-8226 > 100 µM | RXF 393 > 100 µM | SNB-19 > 100 µM | TK-10 > 100 µM | U-251 > 100 µM | UACC-257 > 100 µM

C/C=C(C)/C=C/CC(C)CCC=C(C)C (stereo not drawn)
inactive: ACHN > 100 µM | CCRF-CEM > 100 µM | COLO 205 > 100 µM | EKVX > 100 µM | HL-60 44.5 µM | HOP-92 > 100 µM | HT-29 > 100 µM | K562 > 100 µM | MDA-MB-231 > 100 µM | MDA-MB-435 > 100 µM | NCI-H226 > 100 µM | RXF 393 > 100 µM | SNB-19 > 100 µM | TK-10 > 100 µM | U-251 > 100 µM | UACC-257 > 100 µM | UO-31 > 100 µM

C[C@]12C(=O)C=CCC1=CC[C@@H]1[C@@H]2[C@H]2CC3(O)C(=O)O[C@@]4(C)[C@H]5C[C@@]6(C)[C@@H]7[C@@]2(O)[C@]1(OC[C@H]6C(=O)O5)O[C@]734 (stereo partly drawn)
inactive: ACHN 61.9 µM | CCRF-CEM 20.8 µM | COLO 205 39.6 µM | EKVX 43.9 µM | HL-60 17.5 µM | HOP-92 68.4 µM | HT-29 40.1 µM | K562 38.2 µM | MDA-MB-231 43.7 µM | MDA-MB-435 36.6 µM | NCI-H522 14.3 µM | RPMI-8226 34.8 µM | RXF 393 20.2 µM | SNB-19 62.4 µM | TK-10 93.8 µM | U-251 34.6 µM | UACC-257 59.4 µM | UO-31 > 100 µM

O=[N+]([O-])c1ccc(N/N=C2\C=CCCC2)c([N+](=O)[O-])c1
inactive: ACHN 81.8 µM | CCRF-CEM > 100 µM | COLO 205 > 100 µM | EKVX > 100 µM | HL-60 > 100 µM | HOP-92 52.1 µM | HT-29 > 100 µM | K562 > 100 µM | MDA-MB-435 > 100 µM | NCI-H226 > 100 µM | NCI-H522 > 100 µM | RPMI-8226 > 100 µM | SNB-19 > 100 µM | T47D > 100 µM | TK-10 > 100 µM | U-251 > 100 µM | UACC-257 > 100 µM | UO-31 39 µM

COc1cc(/C=C2\CCC(C)c3c2nc(N)c(C#N)c3-c2cc(OC)c(OC)c(OC)c2)cc(OC)c1OC (stereo not drawn)
inactive: ACHN > 100 µM | CCRF-CEM 23.7 µM | EKVX 34.5 µM | HL-60 49.1 µM | HOP-92 67.5 µM | HT-29 33.3 µM | K562 28.6 µM | MDA-MB-231 37.2 µM | MDA-MB-435 > 100 µM | RPMI-8226 56.2 µM | RXF 393 73.3 µM | SNB-19 54 µM | TK-10 75.3 µM | U-251 46 µM | UACC-257 > 100 µM

c1ccc2sc(C3(N4CCCC4)CCCCCC3)cc2c1
inactive: ACHN 23.6 µM | CCRF-CEM 10.7 µM | COLO 205 14 µM | EKVX 17.3 µM | HL-60 17.4 µM | HOP-92 12.6 µM | HT-29 4.1 µM | K562 17.2 µM | MDA-MB-231 17.1 µM | MDA-MB-435 16.4 µM | NCI-H226 21.3 µM | NCI-H522 18.7 µM | RXF 393 12.3 µM | SNB-19 14 µM | TK-10 17.4 µM | U-251 17.2 µM | UACC-257 16 µM | UO-31 12.8 µM

NS(=O)(=O)c1nnc(NS(=O)(=O)C(F)(F)F)s1
inactive: ACHN > 100 µM | COLO 205 > 100 µM | EKVX > 100 µM | HL-60 > 100 µM | HOP-92 > 100 µM | HT-29 > 100 µM | K562 > 100 µM | MDA-MB-231 > 100 µM | MDA-MB-435 > 100 µM | NCI-H226 > 100 µM | NCI-H522 > 100 µM | RPMI-8226 > 100 µM | RXF 393 > 100 µM | SNB-19 > 100 µM | TK-10 > 100 µM | U-251 > 100 µM | UO-31 > 100 µM
